Laboratory results as given in US20240165123A1, “USE OF A COMPOUND CONTAINING A TRICYCLIC HETEROARYL GROUP” (CSPC Zhongqi Pharmaceutical Technology (Shijiazhuang) Co., …, priority 2021, published 2024).
Where two headings read alike, the source gives them in different places.

Test system: MRL/lpr lupus erythematosus model mice
Type: in vivo
Design: key to Kidney IHC (IgG) pathological score, bilateral kidneys: product score; 0 negative, 1-3 low, 4-8 medium, 9-12 high
Conditions: prednisone 6 mg/kg QD
Procedure: • female MRL/lpr mice aged 4 weeks, number: 50; • female C57BL/6 mice aged 4 weeks, number: 10.
According to the concentration of the serum anti-ds-DNA antibody, female MRL/lpr mice were randomly divided into five groups: model group: solvent (aqueous solution containing 0.4% Tween 80 and 0.5% methylcellulose) 10 mL/kg BID, positive control group: prednisone 6 mg/kg QD, compound (I) 20, 40 and 60 mg/kg BID groups, the administration volumes respectively: 10 mL/kg. In addition, female C57BL/6 mice served as the normal control group. The animals in the Compound (I) group and the model group were administrated with the medicament or the solvent by gavage twice a day starting from the beginning of five weeks of age with an interval of 8 hours between two administrations; prednisone was administered to the animals by gavage once a day from the beginning of five weeks of age; the administration was totally performed for 17 weeks.
Two mice in the model group died at 15 and 16 weeks of administration, respectively, and 8 mice remained at the end of the test; one mouse in the compound (I) 20 mg/kg bid group died in the later period of the 16th week of administration, and 9 mice remained at the end of the test; and no death of mice occurred in other groups.
The skin destructions on the face, ears and back of mice were observed and scored once a week for 17 times totally.
Scoring system: 1) red swelling and bleeding of the skin; 2) the extent of hair loss and skin dryness; 3) edema; 4) excoriation/corrosion; 5) lichenoid sclerotic plaque and other symptoms. The score of each item was as follows: normal=0 points; slight=1 point; moderate=2 points; severe=3 points. The severity of skin destruction was determined according to the total score of each evaluated symptom. […]
The lymph nodes of MRL/lpr mice were scored once a week for a total of 17 times during the test.
According to the lymph node diameter (cm), the score values were 0-6 points: • 0 point: normal; • 1 point: small (the diameter at one location of points on both sides was less than 1 cm); • 2 points: small (the diameters at two location of points on both sides were less than 1 cm); • 3 points: small (the diameters at three location of points on both sides were less than 1 cm); • 4 points: large (the diameter at one location of points on both sides was larger than 1 cm, the diameters at the other two location of points on both sides were less than 1 cm); • 5 points: large (the diameters at two location of points on both sides were larger than 1 cm, and the diameter at the other location of points on both sides was less than 1 cm); • 6 points: large (the diameters at three location of points on both sides were greater than 1 cm). […]
Kidney HE scoring criteria: […]
During the test, the concentration of serum anti-ds-DNA antibody of mice were detected every 4 weeks for 16 weeks.
At the end of the test, the serum cytokine levels of mice were detected by ELISA. […] See Table 25 and FIG. 17 for details.

C[C@]12C=CC(=O)C=C1CC[C@@H]1[C@@H]2C(=O)C[C@@]2(C)[C@H]1CC[C@]2(O)C(=O)CO [prednisone, reference compound]
Area under the urine protein curve (16 weeks): 2360.38 ± 161.30 wk*mg/L | Kidney HE pathological score of both kidneys, Activity index (after 17 weeks of treatment): 1.80 ± 0.36 | Kidney HE pathological score of both kidneys, Chronicity index (after 17 weeks of treatment): 4.90 ± 0.62 | Kidney HE pathological score of both kidneys, Tubulointerstitial lesions (after 17 weeks of treatment): 3.60 ± 0.45 | Kidney IHC (IgG) pathological score, bilateral kidneys (after 17 weeks of treatment): 7.90 ± 0.77 | Skin HE pathological score (after 17 weeks of treatment): 1.80 ± 0.36 | Total kidney weight (after 17 weeks of treatment): 0.3526 ± 0.01 g | Total kidney weight/body weight % (after 17 weeks of treatment): 1.1050 ± 0.04% | IL-6 concentration in serum (ELISA) (end of the test): 19.91 ± 10.43 pg/mL | Spleen weight (end of the test): 0.0756 ± 0.01 g | Spleen weight/body weight % (end of the test): 0.2362 ± 0.03 % | TNF-alpha concentration in serum (ELISA) (end of the test): 5.50 ± 1.13 pg/mL | Total lymph node weight (end of the test): 0.1123 ± 0.03 g | Total lymph node weight/body weight % (end of the test): 0.3445 ± 0.08 % | Concentration of serum anti-ds-DNA antibody (week 0): 3.26 ± 0.30 µg/mL | Lymph node score (week 0): 0.0 ± 0.00 | Skin score (skin destruction) (week 0): 0.0 ± 0.00 | Concentration of serum anti-ds-DNA antibody (week 4): 183.55 ± 28.07 µg/mL | Skin score (skin destruction) (week 4): 0.0 ± 0.00 | Lymph node score (week 6): 0.0 ± 0.00 | Lymph node score (week 7): 0.2 ± 0.13 | Concentration of serum anti-ds-DNA antibody (week 8): 363.75 ± 18.45 µg/mL | Skin score (skin destruction) (week 8): 0.3 ± 0.15 | Lymph node score (week 9): 0.3 ± 0.15 | Lymph node score (week 11): 0.0 ± 0.00 | Concentration of serum anti-ds-DNA antibody (week 12): 619.78 ± 25.47 µg/mL | Lymph node score (week 12): 0.0 ± 0.00 | Skin score (skin destruction) (week 12): 0.3 ± 0.15 | Skin score (skin destruction) (week 14): 0.2 ± 0.13 | Concentration of serum anti-ds-DNA antibody (week 16): 606.66 ± 26.65 µg/mL | Skin score (skin destruction) (week 16): 0.1 ± 0.10 | Lymph node score (week 17): 0.0 ± 0.00 | Skin score (skin destruction) (week 17): 0.1 ± 0.10
